According to patent publication US4748240A, “Psychotropic bicyclic imides” (American Home Products Corporation, priority 1987, dated 1988):
Where two headings read alike, the source gives them in different places.

How the values were obtained:
[1] = biological target: T1, 5-HT1A serotonin receptor (Rattus norvegicus, UniProt P19327); experiment: Inhibition of [^3 H] 8-OH DPAT binding
T1 construct: from tissue
T1 sequence (P19327 1-422): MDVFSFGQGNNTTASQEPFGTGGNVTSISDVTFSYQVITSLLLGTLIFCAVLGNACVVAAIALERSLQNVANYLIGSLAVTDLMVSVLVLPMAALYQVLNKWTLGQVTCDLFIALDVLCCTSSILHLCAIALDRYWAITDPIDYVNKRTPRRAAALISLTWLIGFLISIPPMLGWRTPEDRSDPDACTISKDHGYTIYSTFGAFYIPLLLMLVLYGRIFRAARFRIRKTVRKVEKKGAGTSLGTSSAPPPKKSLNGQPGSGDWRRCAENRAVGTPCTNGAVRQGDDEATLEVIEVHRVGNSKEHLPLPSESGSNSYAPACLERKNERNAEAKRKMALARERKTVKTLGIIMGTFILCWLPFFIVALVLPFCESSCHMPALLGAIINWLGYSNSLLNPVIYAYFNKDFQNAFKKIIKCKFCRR
Excerpt: 8-OH DPAT (dipropylaminotetralin) from the 5-HT1A serotonin receptor by the procedure of Hall et al., J. Neurochem.

D-2 dopamine receptor = biological target: T2, D-2 dopamine receptor (Rattus norvegicus, UniProt P61169); experiment: [^3 H] Spiroperidol binding inhibition (D-2 dopamine receptor, homogenized limbic brain tissue)
T2 construct: from tissue; host or cells: homogenized limbic brain tissue
Excerpt: The results of this testing with compounds representative of the invention whose production is exemplified, infra, are as follows: […]

[2] = system: conditioned avoidance responding; experiment: Conditioned avoidance, Discrete Trial (lever press); format: in vivo, rat (male CD, Charles River); settings: for Conditioned Avoidance, Discrete Trial AB50: p.o.; for ED50: Rattus norvegicus, po, read-out: Conditioned Avoidance, Discrete Trial AB50
Excerpt: (§1) The antipsychotic properties of the compounds of this invention were established by standard pharmacologically accepted procedures involving conditioned avoidance studies in which trained male CD rats (Charles River), 400-450 g. body weight are exposed to a fifteen second warning tone (conditioned stimulus) continued for an additional fifteen seconds accompanied by electric shock. The rat can avoid the electric shock by jumping to an exposed shelf (shelf-jump response). A response during the initial warning tone is considered an avoidance response, while a response during shock delivery is considered as escape response. The shelf-jump response test procedure follows that of Herman et al., Comm. in Psychopharm., 3, pp. 165-171 (1979). The compounds of this invention were tested at a single dose (40 mg./kg. i.p.) in this procedure and were rated relative to their inhibition of conditioned avoidance responding. A similar test procedure (Discrete Trial) in which a lever press was substituted for a shelf-jump was used to establish the oral (p.o.) activity of the test compounds. Orally active compounds were tested over a full dose range and the Avoidance Block activities reported as "AB50 's" (mg./kg.).

[3] = system: apomorphine-induced stereotyped behavior and climbing; experiment: Antagonism of apomorphine-induced stereotyped behavior and climbing; format: in vivo, mouse (CF-1, Charles River); settings: for Apomorphine Antagonism, Stereotypy ED50 / Apomorphine Antagonism, Climbing ED50: p.o.; for Apomorphine Antagonism, Stereotypy ED50 / ED50 / Apomorphine Antagonism, Climbing ED50: apomorphine 1 mg/kg s.c.; for ED50: Mus musculus, po; for Ratio of ED50 for stereotyped behavior to ED50 for climbing: standard antipsychotic drugs, high ratio = low extrapyramidal liability
Method: Readings are repeated every five minutes during a thirty minute test session. […] The ratio of the ED50 for stereotyped behavior of the ED50 for climbing is calculated.

[4] = system: conditioned avoidance responding; experiment: Conditioned avoidance, shelf-jump response; format: in vivo, rat (male CD, Charles River); settings: Rattus norvegicus, ip; single dose 40 mg/kg
Excerpt: as §1

[5] = read-out: Apomorphine Antagonism, Climbing ED50
[6] = read-out: Apomorphine Antagonism, Stereotypy ED50

T2 sequence (P61169 whole entry): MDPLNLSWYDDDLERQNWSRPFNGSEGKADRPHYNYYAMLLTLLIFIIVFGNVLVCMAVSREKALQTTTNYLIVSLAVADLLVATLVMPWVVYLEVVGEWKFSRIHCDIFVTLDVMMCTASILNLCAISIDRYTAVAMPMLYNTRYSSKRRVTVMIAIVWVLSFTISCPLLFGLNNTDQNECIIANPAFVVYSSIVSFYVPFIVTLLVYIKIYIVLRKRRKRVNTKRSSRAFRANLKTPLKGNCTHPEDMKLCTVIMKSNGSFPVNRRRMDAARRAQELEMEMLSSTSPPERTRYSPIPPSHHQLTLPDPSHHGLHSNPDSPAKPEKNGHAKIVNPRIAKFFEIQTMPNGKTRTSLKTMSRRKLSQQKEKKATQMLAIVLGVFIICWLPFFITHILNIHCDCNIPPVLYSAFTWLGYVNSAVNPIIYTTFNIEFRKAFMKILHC

Ki [1] [nM]	inhibition at 1 µM (D-2 dopamine receptor) [%]	Ki (D-2 dopamine receptor) [nM]	inhibition at 1 µM [1] [%]	Structure (SMILES)	Conditioned Avoidance, Discrete Trial AB50 [2]	Apomorphine Antagonism, Stereotypy ED50 [3]	inhibition in vivo at 40 mg/kg [4] [%]	ED50 [3, 5] [mg/kg]	ED50 [2] [mg/kg]	Apomorphine Antagonism, Climbing ED50 [3]	ED50 [3, 6] [mg/kg]	Affinity for the 5-HT1A serotonin receptor (in words) [1]	Ratio of ED50 for stereotyped behavior to ED50 for climbing [3]
10	38	–	–	O=C1C2CCCC(C2)C(=O)N1CCCCN1CCN(c2ncccn2)CC1 [Example 1, 3-[4-[4-(2-Pyrimidinyl)-1-piperazinyl]butyl]-3-azabicyclo[3.3.1]nonane-2,4-dione]	inactive	inactive	~80	–	–	–	–	–	–
106	–	2610	–	O=C1C2CCC(C2)C(=O)N1CCCCN1CCN(c2ncccn2)CC1 [Example 2, 3-[4-[4-(2-Pyrimidinyl)-1-piperazinyl]butyl]-3-azabicyclo[3.2.1]octane-2,4-dione]	weak	inactive	> 20	–	–	–	–	–	–
31	44	–	–	O=C1C2CCC(O2)C(=O)N1CCCCN1CCN(c2ncccn2)CC1 [Example 3, 3-[4-[4-(2-Pyrimidinyl)-1-piperazinyl]butyl]-8-oxa-3-azabicyclo[3.2.1]octane-2,4-dione]	weak	inactive	~80	–	–	–	–	–	–
46	12	–	–	O=C1C2CCC(S2)C(=O)N1CCCCN1CCN(c2ncccn2)CC1 [Example 4, 3-[4-[4-(2-Pyrimidinyl)-1-piperazinyl]butyl]-8-thia-3-azabicyclo[3.2.1]octane-2,4-dione]	inactive	inactive	> 20	53.3	–	–	–	–	–
16	27	–	–	O=C1C2CCCC(S2)C(=O)N1CCCCN1CCN(c2ncccn2)CC1 [Example 5, 3-[4-[4-(2-Pyrimidinyl)-1-piperazinyl]butyl]-9-thia-3-azabicyclo[3.3.1]nonane-2,4-dione]	–	inactive	> 20	–	47.3	inactive	–	–	–
90	14	–	–	O=C1C2CCCC(C(=O)N1CCCCN1CCN(c3ncccn3)CC1)[S+]2[O-] (stereo not drawn) [Example 6, 3-[4-[4-(2-Pyrimidinyl)-1-piperazinyl]butyl]-9-thia-3-azabicyclo[3.3.1]nonane-2,4-dione-9-oxide]	inactive	inactive	> 20	–	–	inactive	–	–	–
–	7	–	54	O=C1C2CCC(O2)C(=O)N1CCCCN1CCN(c2cncc(Cl)n2)CC1 [Example 12, 3-[4-[4-(6-Chloro-2-pyrazinyl)-1-piperazinyl]butyl]-8-oxa-3-azabicyclo[3.2.1]octane-2,4-dione]	weak	inactive	> 20	51.6	–	–	–	–	–
122	17	–	–	O=C1C2CCCC(O2)C(=O)N1CCCCN1CCN(c2ncccn2)CC1 [Example 13, 3-[4-[4-(2-Pyrimidinyl)-1-piperazinyl]butyl]-9-oxa-3-azabicyclo[3.3.1]nonane-2,4-dione]	–	inactive	~80	0.24	86.2	–	–	–	–
–	21	–	63	O=C1C2CCCC(O2)C(=O)N1CCCCN1CCN(c2cncc(Cl)n2)CC1 [Example 15, 3-[4-[4-(6-Chloro-2-pyrazinyl)-1-piperazinyl]butyl]-9-oxa-3-azabicyclo[3.3.1]nonane-2,4-dione]	weak	inactive	~80	–	–	–	–	–	–

Further lines, the molecule ahead of its results:

Structure (SMILES)	Ki [1] [nM]	inhibition at 1 µM (D-2 dopamine receptor) [%]	Ki (D-2 dopamine receptor) [nM]	inhibition at 1 µM [1] [%]	Conditioned Avoidance, Discrete Trial AB50 [2]	Apomorphine Antagonism, Stereotypy ED50 [3]	inhibition in vivo at 40 mg/kg [4] [%]	ED50 [3, 5] [mg/kg]	ED50 [2] [mg/kg]	Apomorphine Antagonism, Climbing ED50 [3]	ED50 [3, 6] [mg/kg]	Affinity for the 5-HT1A serotonin receptor (in words) [1]	Ratio of ED50 for stereotyped behavior to ED50 for climbing [3]
O=C1C2CCCC(C2)C(=O)N1CCCCN1CCN(c2cncc(Cl)n2)CC1 [Example 7, 2-[4-[4-(6-Chloro-2-pyrazinyl)-1-piperazinyl]butyl]-3-azabicyclo[3.3.1]nonane-2,4-dione]	31	21	–	–	–	inactive	~80	–	34.1	–	–	–	–
O=C1C2CCC(C2)C(=O)N1CCCCN1CCN(c2cncc(Cl)n2)CC1 [Example 8, 3-[4-[4-(6-Chloro-2-pyrazinyl)-1-piperazinyl]butyl]-3-azabicyclo[3.2.1]octane-2,4-dione]	–	12	–	68	–	inactive	~80	15.7	33.6	–	–	–	–
O=C1C2CCC(C2)C(=O)N1CCCCN1CCN(c2ccc3ccccc3n2)CC1 [Example 9, 3-[4-[4-(2-Quinolyl)-1-piperazinyl]butyl]-3-azabicyclo[3.2.1]octane-2,4-dione]	60	31	–	–	–	inactive	> 20	40.9	98.2	–	–	–	–
O=C1C2CCC(C2)C(=O)N1CCCCN1CCN(c2cccc(C(F)(F)F)c2)CC1 [Example 10, 3-[4-[4-[3-(Trifluoromethyl)phenyl]-1-piperazinyl]butyl]-3-azabicyclo[3.2.1]octane-2,4-dione]	3.61	–	80	–	–	–	~80	1.05	7.03	–	4.98	–	–
O=C1C2CCC(C2)C(=O)N1CCCCN1CCN(c2cccc(Cl)c2)CC1 [Example 11, 3-[4-[4-(3-Chlorophenyl)-1-piperazinyl]butyl]-3-azabicyclo[3.2.1]octane-2,4-dione]	3.89	–	130	–	–	–	~80	0.79	27.1	–	2.2	–	–
O=C1C2CCCC(S2)C(=O)N1CCCCN1CCN(c2cncc(Cl)n2)CC1 [Example 14, 3-[4-[4-(6-Chloro-2-pyrazinyl)-1-piperazinyl]butyl]-9-thia-3-azabicyclo[3.3.1]nonane-2,4-dione]	35.2	34	–	–	–	inactive	> 20	–	35.6	–	–	–	–
O=C1C2CCCC(C2)C(=O)N1CCCCN1CCN(c2cnccn2)CC1 [Example 16, 3-[4-[4-(2-Pyrazinyl)-1-piperazinyl]butyl]-3-azabicyclo[3.3.1]nonane-2,4-dione]	129	12	–	–	inactive	–	~80	9.17	–	–	54.1	–	–
COc1ccccc1N1CCN(CCCCN2C(=O)C3CCC(C3)C2=O)CC1 [Example 17, 3-[4-[4-(2-Methoxyphenyl)-1-piperazinyl]butyl]-3-azabicyclo[3.2.1]octane-2,4-dione]	5	0	–	–	–	–	~80	0.83	29.4	–	5.83	–	–
CC1(C)C2CCC1C(=O)N(CCCCN1CCN(c3cncc(Cl)n3)CC1)C2=O [Example 18, 3-[4-[4-(6-Chloro-2-pyrazinyl)-1-piperazinyl]butyl]-8,8-dimethyl-3-azabicyclo[3.2.1]octane-2,4-dione]	–	21	–	76	inactive	inactive	> 20	43	–	–	–	–	–
O=C1CC2(CCCC2)CC(=O)N1CCCCN1CCN(c2ncccn2)CC1 [buspirone, reference compound]	–	–	–	–	–	–	–	–	–	–	–	potent affinity	–
CN(C)CCCN1c2ccccc2Sc2ccc(Cl)cc21 [chlorpromazine, reference compound]	–	–	–	–	–	–	–	–	–	–	–	–	1.51
O=C(CCCN1CCC(O)(c2ccc(Cl)cc2)CC1)c1ccc(F)cc1 [haloperidol, reference compound]	–	–	–	–	–	–	–	–	–	–	–	–	1.00
